Results from ChEMBL document CHEMBL2046309, “Semi-synthesis and bio-evaluation of polybrominated diphenyl ethers from the sponge Dysidea herbacea” (Bioorg Med Chem Lett, 2012).
Values after ≈ are worked out from the molar mass of the structure shown. Active and inactive are the calls of the source. The rule behind the calls is not given here.

Legend:
HL-60 = assay: Cytotoxicity against human HL60 cells assessed as decrease in cell number after 24 hrs by MTT assay; type: functional, cell-based; details: HL-60, 24 h
U-937 = assay: Cytotoxicity against human U937 cells assessed as decrease in cell number after 24 hrs by MTT assay; type: functional, cell-based; details: U-937, 24 h
Escherichia coli = assay: Antibacterial activity against Escherichia coli by paper disc assay method; type: functional, organism-based
Pseudomonas syringae = assay: Antibacterial activity against Pseudomonas syringae by paper disc assay method; type: functional, organism-based
Staphylococcus aureus = assay: Antibacterial activity against Staphylococcus aureus by paper disc assay method; type: functional, organism-based
Bacillus subtilis = assay: Antibacterial activity against Bacillus subtilis by paper disc assay method; type: functional, organism-based
Artemia = assay: Toxicity in brine shrimps; type: organism-based; details: in vivo

Row | Compound | IC50 (HL-60) [µg/mL] | IC50 (U-937) [µg/mL] | also measured
1 | BrCCCCOc1c(Br)cc(Br)cc1Oc1ccc(Br)cc1Br | 25.9 (≈ 40.7 µM) | 29 (≈ 45.5 µM) | –
2 | COc1ccccc1N1CCN(CCCCCOc2c(Br)cc(Br)cc2Oc2ccc(Br)cc2Br)CC1 | 32.2 (≈ 42.2 µM) | 37.5 (≈ 49.2 µM) | –
3 | CN1CCN(CCCCCOc2c(Br)cc(Br)cc2Oc2ccc(Br)cc2Br)CC1 | 48.3 (≈ 72.1 µM) | 49.1 (≈ 73.3 µM) | –
4 | CC(=O)Oc1c(Br)cc(Br)cc1Oc1ccc(Br)cc1Br | 29.9 (≈ 55 µM) | 32.3 (≈ 59.4 µM) | Activity (Escherichia coli): Active; Activity (Pseudomonas syringae): Active; Activity (Staphylococcus aureus): Active; Activity (Bacillus subtilis): Active; LC50 (Artemia): 23.28 ppm
5 | Brc1ccc(Oc2cc(Br)cc(Br)c2OCCCCCN2CCOCC2)c(Br)c1 | 50.5 (≈ 76.9 µM) | 39.8 (≈ 60.6 µM) | –
6 | C=CCOc1c(Br)cc(Br)cc1Oc1ccc(Br)cc1Br | 27.9 (≈ 51.5 µM) | 29 (≈ 53.5 µM) | –
7 | BrCCOc1c(Br)cc(Br)cc1Oc1ccc(Br)cc1Br | 26.2 (≈ 43 µM) | 32.5 (≈ 53.4 µM) | –
8 | CC(C)(C)C(=O)C(C#N)Oc1c(Br)cc(Br)cc1Oc1ccc(Br)cc1Br (stereo not drawn) | 29.2 (≈ 46.7 µM) | 32.5 (≈ 52 µM) | –
9 | Cc1ccc(S(=O)(=O)n2nc(N3CCN(CCCCCOc4c(Br)cc(Br)cc4Oc4ccc(Br)cc4Br)CC3)c3cc([N+](=O)[O-])ccc32)cc1 | 52.5 (≈ 54 µM) | 68.5 (≈ 70.5 µM) | –
10 | CC(C)(C)OC(=O)N1CCCN(CCCCCOc2c(Br)cc(Br)cc2Oc2ccc(Br)cc2Br)CC1 | 44.8 (≈ 58.2 µM) | 39.5 (≈ 51.3 µM) | –
11 | OCCCOc1c(Br)cc(Br)cc1Oc1ccc(Br)cc1Br | 29.9 (≈ 53.4 µM) | 32.3 (≈ 57.7 µM) | –
12 | OCCOc1c(Br)cc(Br)cc1Oc1ccc(Br)cc1Br | 28.2 (≈ 51.7 µM) | 34.5 (≈ 63.2 µM) | –
13 | CCOC(=O)C(C)Oc1c(Br)cc(Br)cc1Oc1ccc(Br)cc1Br (stereo not drawn) | 35.7 (≈ 59.3 µM) | 39.5 (≈ 65.6 µM) | –
14 | Brc1ccc(Oc2cc(Br)cc(Br)c2OCc2ccccc2)c(Br)c1 | 27.9 (≈ 47.1 µM) | 29 (≈ 49 µM) | –
15 | COc1cc([C@@H]2c3cc4c(cc3[C@@H](O[C@@H]3O[C@@H]5CO[C@@H](C)O[C@H]5[C@H](O)[C@H]3O)[C@H]3COC(=O)[C@H]23)OCO4)cc(OC)c1O [ETOPOSIDE] | 1.1 (≈ 1.87 µM) | – | –
16 | BrCCCCCCOc1c(Br)cc(Br)cc1Oc1ccc(Br)cc1Br | 37.8 (≈ 56.9 µM) | 33.8 (≈ 50.8 µM) | –
17 | Brc1ccc(Oc2cc(Br)cc(Br)c2OCCCCCN2CCN(c3ccccc3)CC2)c(Br)c1 | 41.6 (≈ 56.8 µM) | 42.5 (≈ 58 µM) | –
18 | C#CCOc1c(Br)cc(Br)cc1Oc1ccc(Br)cc1Br | 29.7 (≈ 55 µM) | 29.5 (≈ 54.6 µM) | –
19 | COc1c(Br)cc(Br)cc1Oc1ccc(Br)cc1Br | 28.2 (≈ 54.7 µM) | 34.5 (≈ 66.9 µM) | Activity (Escherichia coli): Active; Activity (Pseudomonas syringae): Active; Activity (Staphylococcus aureus): Active; Activity (Bacillus subtilis): Active; LC50 (Artemia): 19.28 ppm
20 | Oc1c(Br)cc(Br)cc1Oc1ccc(Br)cc1Br | 19.3 (≈ 38.5 µM) | 22.5 (≈ 44.8 µM) | LC50 (Artemia): 12.8 ppm
21 | BrCCCCCOc1c(Br)cc(Br)cc1Oc1ccc(Br)cc1Br | 25.7 (≈ 39.5 µM) | 29.5 (≈ 45.3 µM) | –
22 | CC(C)(C)OC(=O)N1CCN(CCCCCOc2c(Br)cc(Br)cc2Oc2ccc(Br)cc2Br)CC1 | 32.1 (≈ 42.5 µM) | 35.5 (≈ 46.9 µM) | –
23 | BrCCCOc1c(Br)cc(Br)cc1Oc1ccc(Br)cc1Br | 29.9 (≈ 48 µM) | 30.3 (≈ 48.7 µM) | –
24 | Brc1ccc(Oc2cc(Br)cc(Br)c2OCCCCCN2CCN(C/C=C/c3ccccc3)CC2)c(Br)c1 | 47.2 (≈ 61.1 µM) | 32.7 (≈ 42.3 µM) | –
